# Results: patent US11046696B2, “Fused pyrimidine compound or salt thereof” (TAIHO PHARMACEUTICAL CO., LTD., priority 2016, dated 2021)
# Assay: Evaluation of stability in liver microsome
# Conditions: mouse liver microsome, 1 μM, 37° C. for 30 minutes
row,SMILES,Remaining (%)
1,"COCc1ccc(NC(=O)c2c(C#Cc3cccnc3)n(C3(C)CC3)c3ncnc(N)c23)cc1 [Example 94, 4-amino-N-[4-(methoxymethyl)phenyl]-7-(1-methylcyclopropyl)-6-(pyridin-3-ylethynyl)-7H-pyrrolo[2,3-d]pyrimidine-5-carboxamide]",60
2,"COCc1ccc(NC(=O)c2c(C#CCN3CCCC3)n(C3(C)CC3)c3ncnc(N)c23)cc1 [Example 88, 4-amino-N-[4-(methoxymethyl)phenyl]-7-(1-methylcyclopropyl)-6-(3-(pyrrolidin-1-yl)prop-1-yn-1-yl)-7H-pyrrolo[2,3-d]pyrimidine-5-carboxamide]",59
3,"COCc1ccc(NC(=O)c2c(C)n(C(C)(C)C)c3ncnc(N)c23)cc1 [Example 60, 4-amino-7-(tert-butyl)-N-(4-(methoxymethyl)phenyl)-6-methyl-7H-pyrrolo[2,3-d]pyrimidine-5-carboxamide]",81
4,"COCc1ccc(NC(=O)c2c(C(C)O)n(C3(C)CC3)c3ncnc(N)c23)cc1 (stereo not shown) [Example 204, 4-amino-6-(1-hydroxyethyl)-N-(4-(methoxymethyl)phenyl)-7-(1-methylcyclopropyl)-7H-pyrrolo[2,3-d]pyrimidine-5-carboxamide]",83
5,"COCc1ccc(NC(=O)c2c(-c3ccc(F)nc3)n(C3(C)CC3)c3ncnc(N)c23)cc1 [Example 190, 4-amino-6-(6-fluoropyridin-3-yl)-N-(4-(methoxymethyl)phenyl)-7-(1-methylcyclopropyl)-7H-pyrrolo[2,3-d]pyrimidine-5-carboxamide]",58
6,"COCc1ccc(NC(=O)c2c(C#CCC(C)O)n(C3(C)CC3)c3ncnc(N)c23)cc1 (stereo not shown) [Example 188, 4-amino-6-(4-hydroxypent-1-yn-1-yl)-N-(4-(methoxymethyl)phenyl)-7-(1-methylcyclopropyl)-7H-pyrrolo[2,3-d]pyrimidine-5-carboxamide]",68
7,"COCc1ccc(NC(=O)c2c(F)n(C3(C)CC3)c3ncnc(N)c23)cc1 [Example 69, 4-amino-6-fluoro-N-(4-(methoxymethyl)phenyl)-7-(1-methylcyclopropyl)-7H-pyrrolo[2,3-d]pyrimidine-5-carboxamide]",69
8,"COCc1ccc(NC(=O)c2cn(C(C)(C)C)c3ncnc(N)c23)cc1 [Example 2, 4-amino-7-(tert-butyl)-N-(4-(methoxymethyl)phenyl)-7H-pyrrolo[2,3-d]pyrimidine-5-carboxamide]",64
9,"COCc1ccc(NC(=O)c2cn(C3(C)CC3)c3ncnc(N)c23)cc1F [Example 48, 4-amino-N-(3-fluoro-4-(methoxymethyl)phenyl)-7-(1-methylcyclopropyl)-7H-pyrrolo[2,3-d]pyrimidine-5-carboxamide]",58
10,"COCc1ccc(NC(=O)c2c(OCC3CCOC3)n(C3(C)CC3)c3ncnc(N)c23)cc1 (stereo not shown) [Example 101, 4-amino-N-(4-(methoxymethyl)phenyl)-7-(1-methylcyclopropyl)-6-((tetrahydrofuran-3-yl)methoxy)-7H-pyrrolo[2,3-d]pyrimidine-5-carboxamide]",68
11,"COCc1ccc(NC(=O)c2c(/C=C/CO)n(C3(C)CC3)c3ncnc(N)c23)cc1 [Example 109, (E)-4-amino-6-(3-hydroxyprop-1-en-1-yl)-N-(4-(methoxymethyl)phenyl)-7-(1-methylcyclopropyl)-7H-pyrrolo[2,3-d]pyrimidine-5-carboxamide]",68
12,"COCc1ccc(NC(=O)c2c(OCC3CCOCC3)n(C3(C)CC3)c3ncnc(N)c23)cc1 [Example 141, 4-amino-N-(4-(methoxymethyl)phenyl)-7-(1-methylcyclopropyl)-6-((tetrahydro-2H-pyran-4-yl)methoxy)-7H-pyrrolo[2,3-d]pyrimidine-5-carboxamide]",68
13,"COCc1ccc(NC(=O)c2c(C#Cc3cnc4[nH]ccc4c3)n(C3(C)CC3)c3ncnc(N)c23)cc1 [Example 128, 6-((1H-pyrrolo[2,3-b]pyridin-5-yl)ethynyl)-4-amino-N-(4-(methoxymethyl)phenyl)-7-(1-methylcyclopropyl)-7H-pyrrolo[2,3-d]pyrimidine-5-carboxamide]",82
14,"COCc1ccc(NC(=O)c2c(C#CC3(O)CCOCC3)n(C3(C)CC3)c3ncnc(N)c23)cc1 [Example 185, 4-amino-6-((4-hydroxytetrahydro-2H-pyran4-yl)ethynyl)-N-(4-(methoxymethyl)phenyl)-7-(1-methylcyclopropyl)-7H-pyrrolo[2,3-d]pyrimidine-5-carboxamide]",80
15,"COCc1ccc(NC(=O)c2c(OCCN3CCCC3=O)n(C3(C)CC3)c3ncnc(N)c23)cc1 [Example 136, 4-amino-N-(4-(methoxymethyl)phenyl)-7-(1-methylcyclopropyl)-6-(2-(2-oxopyrrolidin-1-yl)ethoxy)-7H-pyrrolo[2,3-d]pyrimidine-5-carboxamide]",78
16,"C=C(C)c1c(C(=O)Nc2ccc(COC)cc2)c2c(N)ncnc2n1C1(C)CC1 [Example 149, 4-amino-N-(4-(methoxymethyl)phenyl)-7-(1-methylcyclopropyl)-6-(prop-1-en-2-yl)-7H-pyrrolo[2,3-d]pyrimidine-5-carboxamide]",62

row,SMILES,Remaining (%)
1,"COCc1ccc(NC(=O)c2cn(C(C)(C)CF)c3ncnc(N)c23)cc1 [Example 26, 4-amino-7-(1-fluoro-2-methylpropan-2-yl)-N-(4-(methoxymethyl)phenyl)-7H-pyrrolo[2,3-d]pyrimidine-5-carboxamide]",60
2,"COCc1ccc(NC(=O)c2c(OCC3CCCC3)n(C3(C)CC3)c3ncnc(N)c23)cc1 [Example 140, 4-amino-6-(cyclopentylmethoxy)-N-(4-(methoxymethyl)phenyl)-7-(1-methylcyclopropyl)-7H-pyrrolo[2,3-d] pyrimidine-5-carboxamide]",52
3,"COCc1ccc(NC(=O)c2c(C3=CCOCC3)n(C3(C)CC3)c3ncnc(N)c23)cc1 [Example 203, 4-amino-6-(3,6-dihydro-2H-pyran-4-yl)-N-(4-(methoxymethyl)phenyl)-7-(1-methylcyclopropyl)-7H-pyrrolo[2,3-d]pyrimidine-5-carboxamide]",68
4,"COCc1ccc(NC(=O)c2c(C#Cc3cnc4cccnn34)n(C3(C)CC3)c3ncnc(N)c23)cc1 [Example 91, 4-amino-6-(imidazo[1,2-b]pyridazin-3-ylethynyl)-N-[4-(methoxymethyl)phenyl]-7-(1-methylcyclopropyl)-7H-pyrrolo[2,3-d]pyrimidine-5-carboxamide]",65
5,"COCc1ccc(NC(=O)c2c(Cl)n(C3(C)CC3)c3ncnc(N)c23)cc1 [Example 56, 4-amino-6-chloro-N-[4-(methoxymethyl)phenyl]-7-(1-methylcyclopropyl)-7H-pyrrolo[2,3-d]pyrimidine-5-carboxamide]",62
6,"COCc1ccc(NC(=O)c2c(C#CC(O)C3CC3)n(C3(C)CC3)c3ncnc(N)c23)cc1 (stereo not shown) [Example 104, 4-amino-6-(3-cyclopropyl-3-hydroxyprop-1-yn-1-yl)-N-(4-(methoxymethyl)phenyl)-7-(1-methylcyclopropyl)-7H-pyrrolo[2,3-d]pyrimidine-5-carboxamide]",52
7,"COCc1ccc(NC(=O)c2c(C#CC3CCN(C)CC3)n(C3(C)CC3)c3ncnc(N)c23)cc1 [Example 183, 4-amino-N-(4-(methoxymethyl)phenyl)-7-(1-methylcyclopropyl)-6-((1-methylpiperidin-4-yl)ethynyl)-7H-pyrrolo[2,3-d]pyrimidine-5-carboxamide]",77
8,"COCc1ccc(NC(=O)c2c(C#Cc3cccs3)n(C3(C)CC3)c3ncnc(N)c23)cc1 [Example 119, 4-amino-N-(4-(methoxymethyl)phenyl)-7-(1-methylcyclopropyl)-6-(thiophen-2-ylethynyl)-7H-pyrrolo[2,3-d]pyrimidine-5-carboxamide]",70
9,"CC(C)(C)n1cc(C(=O)Nc2ccc(-c3cc[nH]n3)cc2)c2c(N)ncnc21 [Example 80, N-(4-(1H-pyrazol-3-yl)phenyl)-4-amino-7-(tert-butyl)-7H-pyrrolo[2,3-d]pyrimidine-5-carboxamide]",50
10,"COCc1ccc(NC(=O)c2c(C#Cc3ccc(OC)cc3)n(C3(C)CC3)c3ncnc(N)c23)cc1 [Example 165, 4-amino-N-(4-(methoxymethyl)phenyl)-6-((4-methoxypheny)ethynyl)-7-(1-methylcyclopropyl)-7H-pyrrolo[2,3-d]pyrimidine-5-carboxamide]",90
11,"COCc1ccc(NC(=O)c2c(C#Cc3cncn3C)n(C3(C)CC3)c3ncnc(N)c23)cc1 [Example 93, 4-amino-N-(4-(methoxymethyl)phenyl)-6-((1-methyl-1H-imidazol-5-yl)ethynyl)-7-(1-methylcyclopropyl)-7H-pyrrolo[2,3-d]pyrimidine-5-carboxamide]",53
12,"COCc1ccc(NC(=O)c2cn(C3(C(F)F)CC3)c3ncnc(N)c23)cc1 [Example 46, 4-amino-7-(1-(difluoromethyl)cyclopropyl)-N-(4-(methoxymethyl)phenyl)-7H-pyrrolo[2,3-d]pyrimidine-5-carboxamide]",65
13,"COCc1ccc(NC(=O)c2c(C#Cc3ccc4c(c3)NCCO4)n(C3(C)CC3)c3ncnc(N)c23)cc1 [Example 158, 4-amino-6-((3,4-dihydro-2H-benzo[b][1,4]oxazin-6-yl)ethynyl)-N-(4-(methoxymethyl)phenyl)-7-(1-methylcyclopropyl)-7H-pyrrolo[2,3-d]pyrimidine-5-carboxamide]",85
14,"COCc1ccc(NC(=O)c2c(-c3cccnc3)n(C3(C)CC3)c3ncnc(N)c23)cc1 [Example 61, 4-amino-N-(4-(methoxymethyl)phenyl)-7-(1-methylcyclopropyl)-6-(pyridin-3-yl)-7H-pyrrolo[2,3-d]pyrimidine-5-carboxamide]",81
15,"COCc1ccc(NC(=O)c2c(OC[C@@H]3CCCO3)n(C3(C)CC3)c3ncnc(N)c23)cc1 [Example 97, (S)-4-amino-N-(4-(methoxymethyl)phenyl)-7-(1-methylcyclopropyl)-6-((tetrahydrofuran-2-yl)methoxy)-7H-pyrrolo[2,3-d]pyrimidine-5-carboxamide]",70
